This note sets out measurements from US7250408B2, “Glucocorticoid receptor antagonists for prophylaxis and therapy of glucocorticoid-mediated hypogonadism, of sexual dysfunction and/or infertility” (Bayer Schering Pharma AG, priority 2002, dated 2007).

The structures appear in SMILES notation.

One assay addresses T1, Progesterone Receptor (Homo sapiens, UniProt P06401).
T1 sequence (P06401 1-933): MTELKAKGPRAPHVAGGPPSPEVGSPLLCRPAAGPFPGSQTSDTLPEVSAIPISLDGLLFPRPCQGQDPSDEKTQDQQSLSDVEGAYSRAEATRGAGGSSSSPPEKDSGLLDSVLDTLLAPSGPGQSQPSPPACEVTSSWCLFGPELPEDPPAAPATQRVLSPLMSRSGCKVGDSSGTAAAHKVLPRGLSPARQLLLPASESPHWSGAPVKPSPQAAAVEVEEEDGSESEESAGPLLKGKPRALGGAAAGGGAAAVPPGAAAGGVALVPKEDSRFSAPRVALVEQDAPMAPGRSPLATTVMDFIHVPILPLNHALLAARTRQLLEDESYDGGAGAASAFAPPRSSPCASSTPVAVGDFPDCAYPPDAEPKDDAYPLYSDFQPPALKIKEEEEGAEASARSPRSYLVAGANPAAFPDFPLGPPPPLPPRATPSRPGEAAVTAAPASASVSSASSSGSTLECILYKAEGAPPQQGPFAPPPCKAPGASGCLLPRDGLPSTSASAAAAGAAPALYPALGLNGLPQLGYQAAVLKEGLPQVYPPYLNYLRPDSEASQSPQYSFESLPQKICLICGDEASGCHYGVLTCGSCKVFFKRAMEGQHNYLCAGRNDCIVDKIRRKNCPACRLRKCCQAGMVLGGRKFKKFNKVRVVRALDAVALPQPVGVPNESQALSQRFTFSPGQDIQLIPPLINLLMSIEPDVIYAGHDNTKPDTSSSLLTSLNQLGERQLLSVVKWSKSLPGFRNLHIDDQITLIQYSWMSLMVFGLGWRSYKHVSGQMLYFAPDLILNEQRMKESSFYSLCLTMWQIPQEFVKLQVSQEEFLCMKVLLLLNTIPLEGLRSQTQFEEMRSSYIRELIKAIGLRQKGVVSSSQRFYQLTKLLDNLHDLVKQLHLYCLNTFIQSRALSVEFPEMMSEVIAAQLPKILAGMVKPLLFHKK
Kind of assay: Progesterone receptor binding, relative binding affinity (RBA). The note with it: RBA relative to progesterone = 100.

In the next assay the target is T2, Glucocorticoid Receptor (Homo sapiens, UniProt P04150).
T2 sequence (P04150 1-777): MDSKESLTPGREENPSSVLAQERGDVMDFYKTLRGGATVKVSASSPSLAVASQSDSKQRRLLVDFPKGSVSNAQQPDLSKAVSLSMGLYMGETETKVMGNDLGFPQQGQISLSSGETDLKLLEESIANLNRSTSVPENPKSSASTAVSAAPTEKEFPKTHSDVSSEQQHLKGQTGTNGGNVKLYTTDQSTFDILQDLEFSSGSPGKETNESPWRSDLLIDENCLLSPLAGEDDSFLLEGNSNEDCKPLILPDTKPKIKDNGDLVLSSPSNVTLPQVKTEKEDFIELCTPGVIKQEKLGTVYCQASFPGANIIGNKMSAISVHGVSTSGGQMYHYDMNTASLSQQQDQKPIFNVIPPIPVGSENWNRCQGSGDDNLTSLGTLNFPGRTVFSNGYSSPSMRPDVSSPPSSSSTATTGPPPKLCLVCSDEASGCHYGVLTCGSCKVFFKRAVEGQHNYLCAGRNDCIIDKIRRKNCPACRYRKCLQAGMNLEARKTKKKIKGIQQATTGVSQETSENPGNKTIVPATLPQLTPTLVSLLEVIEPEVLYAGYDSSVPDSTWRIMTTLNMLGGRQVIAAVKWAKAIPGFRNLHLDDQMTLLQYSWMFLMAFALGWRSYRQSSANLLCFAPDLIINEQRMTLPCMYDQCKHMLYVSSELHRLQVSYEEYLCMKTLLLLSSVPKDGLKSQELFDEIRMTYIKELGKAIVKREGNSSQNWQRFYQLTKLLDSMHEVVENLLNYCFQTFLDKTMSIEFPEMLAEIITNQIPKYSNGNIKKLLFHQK
Kind of assay: Glucocorticoid receptor binding, relative binding affinity (RBA). The note with it: RBA relative to dexamethasone = 100.

Regarding `COc1cccc(C2CC3(C)C(CCC3(O)C#CC(C)(C)C)C3CCC4=CC(=O)CCC4=C23)c1` (stereo not drawn) [Example 1, 21-tert.Butyl-17-hydroxy-11β-(3-methoxyphenyl)-19-nor-17α-pregna-4,9-dien-20-yn-3-one], on Progesterone Receptor, the “Relative Binding Affinity to Progesterone Receptor, %” value stood at 3.4%. In addition, the “Relative Binding Affinity to Glucocorticoid Receptor, %” value on Glucocorticoid Receptor was determined as 85%.

In the case of `COc1cccc(C2CC3(C)C(CCC3(O)C#Cc3cccc(C=O)c3)C3CCC4=CC(=O)CCC4=C23)c1` (stereo not drawn) [Example 3, 3-{17-Hydroxy-11β-[3-(methoxy)phenyl]-3-keto-19-nor-17α-pregna-4,9-dien-20-yn-21-yl}benzaldehyde], the “Relative Binding Affinity to Progesterone Receptor, %” value at Progesterone Receptor came to 4.3%. Moreover, the “Relative Binding Affinity to Glucocorticoid Receptor, %” value at Glucocorticoid Receptor stood at 159%.

For `COc1cccc(C2CC3(C)C(CCC3(O)C#Cc3ccc(OC(C)=O)cc3)C3CCC4=CC(=O)CCC4=C23)c1` (centres unmarked) [Example 4], on Progesterone Receptor, the “Relative Binding Affinity to Progesterone Receptor, %” value is 2.8%. Further, the “Relative Binding Affinity to Glucocorticoid Receptor, %” value on Glucocorticoid Receptor amounted to 98%.

`COc1cccc(C2CC3(C)C(CCC3(O)C#Cc3ccc(-n4cccc4)cc3)C3CCC4=CC(=O)CCC4=C23)c1` (centres unmarked) [Example 5]: on Progesterone Receptor, the “Relative Binding Affinity to Progesterone Receptor, %” value was determined as 3.4%. Moreover, the “Relative Binding Affinity to Glucocorticoid Receptor, %” value at Glucocorticoid Receptor turned out to be 57%.

Turning to `COc1cccc(C2CC3(C)C(CCC3(O)C#Cc3ccc(O)cc3)C3CCC4=CC(=O)CCC4=C23)c1` (centres unmarked) [Example 6], at Progesterone Receptor, the “Relative Binding Affinity to Progesterone Receptor, %” value is on record as 2.9%. At Glucocorticoid Receptor, the “Relative Binding Affinity to Glucocorticoid Receptor, %” value was 109%.

As for `COc1cccc(C2CC3(C)C(CCC3(O)C#Cc3ccc(S(C)(=O)=O)cc3)C3CCC4=CC(=O)CCC4=C23)c1` (stereo not drawn) [Example 7, 17-Hydroxy-21-(4-mesylphenyl)-11,6-(3-methoxyphenyl)-19-nor-17α-pregna-4,9-dien-20-yn-3-one], at Progesterone Receptor, the “Relative Binding Affinity to Progesterone Receptor, %” value turned out to be 1.0%. Moreover, the “Relative Binding Affinity to Glucocorticoid Receptor, %” value on Glucocorticoid Receptor was 155%.

On to `COc1cccc(C2CC3(C)C(CCC3(O)C#Cc3cccc(C=NO)c3)C3CCC4=CC(=O)CCC4=C23)c1` (stereo not drawn) [Example 10, 3-E-[17-Hydroxy-11β-[3-(methoxy)phenyl)-19-nor-3-keto-17α-pregna-4,9-dien-20-yn-21-yl]benzaldoxime], for which the “Relative Binding Affinity to Progesterone Receptor, %” value at Progesterone Receptor is 10.4%. Besides, the “Relative Binding Affinity to Glucocorticoid Receptor, %” value at Glucocorticoid Receptor came out at 148%.
